We go through 9 compounds from ChEMBL document CHEMBL5465560, “Selectivity Literature for EUbOPEN Chemogenomic Library” (2024).

For assay [1], the target named is T1, Interleukin-1 receptor-associated kinase 4 (Homo sapiens) (UniProt Q9NWZ3).
T1 sequence (whole entry): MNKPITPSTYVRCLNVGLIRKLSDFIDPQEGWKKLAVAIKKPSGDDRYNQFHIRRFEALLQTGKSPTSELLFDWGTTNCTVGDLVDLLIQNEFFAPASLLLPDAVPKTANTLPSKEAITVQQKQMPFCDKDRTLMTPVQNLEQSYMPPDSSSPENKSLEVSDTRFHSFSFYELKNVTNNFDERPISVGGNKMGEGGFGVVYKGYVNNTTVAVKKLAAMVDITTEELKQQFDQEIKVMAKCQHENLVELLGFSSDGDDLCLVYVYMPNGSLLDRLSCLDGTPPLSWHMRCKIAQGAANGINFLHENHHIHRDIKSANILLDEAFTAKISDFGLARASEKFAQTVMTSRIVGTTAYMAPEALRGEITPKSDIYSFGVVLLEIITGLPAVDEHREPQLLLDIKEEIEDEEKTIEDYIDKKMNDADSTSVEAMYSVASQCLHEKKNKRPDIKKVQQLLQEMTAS
The experiment in a line: Selectivity interaction (Kinase panel (Z-LYTE Assay)) EUB0001632a IRAK4. The following applies: at 10 µM.

The target in assay [2] is Dual specificity mitogen-activated protein kinase kinase 2 (Homo sapiens) (UniProt P36507). Description: Selectivity interaction (LanthaScreen Eu Kinase Binding Assay) EUB0001632a MAP2K2. The following applies: at 10 µM.
Chain of Dual specificity mitogen-activated protein kinase kinase 2 (Homo sapiens) (P36507 whole entry): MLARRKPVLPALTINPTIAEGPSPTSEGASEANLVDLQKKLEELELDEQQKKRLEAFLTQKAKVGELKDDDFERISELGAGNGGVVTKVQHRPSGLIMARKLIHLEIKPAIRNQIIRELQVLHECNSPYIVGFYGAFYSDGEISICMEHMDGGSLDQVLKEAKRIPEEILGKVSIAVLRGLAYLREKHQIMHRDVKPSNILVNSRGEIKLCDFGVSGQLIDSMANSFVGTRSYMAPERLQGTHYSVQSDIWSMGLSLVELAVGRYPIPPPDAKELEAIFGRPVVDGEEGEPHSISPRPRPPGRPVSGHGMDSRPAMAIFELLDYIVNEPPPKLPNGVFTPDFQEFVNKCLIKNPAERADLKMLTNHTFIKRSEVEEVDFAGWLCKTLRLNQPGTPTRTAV
The test system of assay [3] is eIF-2-alpha kinase GCN2 (Homo sapiens), Q9P2K8 [S808G]. The experiment in a line: Selectivity interaction (KinomeScan (DiscoverX)) EUB0000607a EIF2AK4. The following applies: at 10 µM.
In assay [4] the test system is Tyrosine-protein kinase ABL1 (Homo sapiens), P00519 [E255K]. The experiment in a line: Selectivity interaction (SelectScreen profiling (Invitrogen)) EUB0000607a ABL1. The following applies: at 2 µM.
Chain of Tyrosine-protein kinase ABL1 (Homo sapiens), P00519 [E255K] (P00519 whole entry E255K): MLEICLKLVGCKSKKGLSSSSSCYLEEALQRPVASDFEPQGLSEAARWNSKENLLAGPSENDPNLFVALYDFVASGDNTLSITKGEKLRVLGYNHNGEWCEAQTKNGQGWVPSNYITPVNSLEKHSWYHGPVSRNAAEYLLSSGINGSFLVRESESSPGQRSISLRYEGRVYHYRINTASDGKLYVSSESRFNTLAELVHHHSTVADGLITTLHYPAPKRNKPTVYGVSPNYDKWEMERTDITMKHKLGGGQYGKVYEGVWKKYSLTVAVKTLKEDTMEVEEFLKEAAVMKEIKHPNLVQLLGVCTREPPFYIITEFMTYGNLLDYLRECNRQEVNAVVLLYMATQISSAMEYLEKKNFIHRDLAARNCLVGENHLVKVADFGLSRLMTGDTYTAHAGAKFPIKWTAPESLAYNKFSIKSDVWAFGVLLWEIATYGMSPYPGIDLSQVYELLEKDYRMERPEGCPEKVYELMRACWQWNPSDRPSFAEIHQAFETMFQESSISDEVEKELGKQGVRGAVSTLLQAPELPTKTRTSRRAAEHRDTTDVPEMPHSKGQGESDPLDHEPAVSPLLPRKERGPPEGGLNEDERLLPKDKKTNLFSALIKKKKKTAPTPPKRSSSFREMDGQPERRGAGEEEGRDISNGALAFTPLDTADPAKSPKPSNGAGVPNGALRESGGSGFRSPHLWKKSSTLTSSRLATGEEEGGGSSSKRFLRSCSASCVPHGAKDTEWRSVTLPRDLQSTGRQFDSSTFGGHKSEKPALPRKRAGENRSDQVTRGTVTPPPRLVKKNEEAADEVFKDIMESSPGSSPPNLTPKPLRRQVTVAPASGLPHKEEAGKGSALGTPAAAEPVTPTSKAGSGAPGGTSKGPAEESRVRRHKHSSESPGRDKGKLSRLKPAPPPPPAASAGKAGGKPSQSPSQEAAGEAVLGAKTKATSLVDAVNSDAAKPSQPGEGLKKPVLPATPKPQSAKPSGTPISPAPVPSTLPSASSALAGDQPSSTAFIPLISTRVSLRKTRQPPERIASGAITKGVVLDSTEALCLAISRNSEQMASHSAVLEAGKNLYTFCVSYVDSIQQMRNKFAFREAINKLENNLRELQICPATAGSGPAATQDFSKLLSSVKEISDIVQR
Assay [5] deals with T2, Mitogen-activated protein kinase 15 (Homo sapiens) (UniProt Q8TD08).
T2 sequence (whole entry): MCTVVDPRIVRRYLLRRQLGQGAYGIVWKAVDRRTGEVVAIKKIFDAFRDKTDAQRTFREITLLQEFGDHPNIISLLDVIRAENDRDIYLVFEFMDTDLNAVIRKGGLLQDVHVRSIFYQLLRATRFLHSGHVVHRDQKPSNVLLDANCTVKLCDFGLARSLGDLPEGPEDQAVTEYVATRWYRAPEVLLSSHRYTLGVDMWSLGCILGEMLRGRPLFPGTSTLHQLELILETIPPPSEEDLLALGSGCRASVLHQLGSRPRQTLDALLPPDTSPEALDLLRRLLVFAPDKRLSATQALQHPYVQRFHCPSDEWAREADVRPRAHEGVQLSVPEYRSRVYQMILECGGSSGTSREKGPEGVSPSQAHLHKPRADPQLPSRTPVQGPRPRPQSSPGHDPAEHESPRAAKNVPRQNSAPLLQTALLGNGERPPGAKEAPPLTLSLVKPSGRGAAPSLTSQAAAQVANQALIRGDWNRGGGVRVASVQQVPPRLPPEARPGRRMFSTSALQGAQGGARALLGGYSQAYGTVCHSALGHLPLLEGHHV
The experiment in a line: Selectivity interaction (KinomeScan (DiscoverX)) EUB0001619a MAPK15. The following applies: at 1 µM.

The target in assay [6] is 5'-AMP-activated protein kinase catalytic subunit alpha-1 (Homo sapiens, UniProt Q13131). Description: Selectivity interaction (ActivX KiNativ screen (ex vivo kinase selectivity in human PBMCs)) EUB0001619a PRKAA1. The class given is cell-based. The settings on record: PBMC, at 1 µM.
Chain of 5'-AMP-activated protein kinase catalytic subunit alpha-1 (Q13131 whole entry, looked up): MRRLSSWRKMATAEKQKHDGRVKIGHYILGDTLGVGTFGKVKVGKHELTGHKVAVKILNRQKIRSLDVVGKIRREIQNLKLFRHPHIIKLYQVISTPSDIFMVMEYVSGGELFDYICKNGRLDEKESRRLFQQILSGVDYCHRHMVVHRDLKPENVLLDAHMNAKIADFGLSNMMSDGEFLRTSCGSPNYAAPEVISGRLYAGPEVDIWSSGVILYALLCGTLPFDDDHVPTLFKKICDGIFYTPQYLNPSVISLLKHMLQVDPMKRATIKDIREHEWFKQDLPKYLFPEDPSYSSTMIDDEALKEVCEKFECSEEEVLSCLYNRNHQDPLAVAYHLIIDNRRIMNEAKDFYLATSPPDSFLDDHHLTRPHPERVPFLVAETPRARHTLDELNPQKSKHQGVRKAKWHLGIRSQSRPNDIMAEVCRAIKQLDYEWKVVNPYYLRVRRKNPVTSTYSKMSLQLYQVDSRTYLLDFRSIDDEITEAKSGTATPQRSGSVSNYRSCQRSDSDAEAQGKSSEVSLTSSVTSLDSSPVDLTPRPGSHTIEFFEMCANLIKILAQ
Assay [7] concerns the target Mitogen-activated protein kinase kinase kinase kinase 4 (Homo sapiens, UniProt O95819). Description: Selectivity interaction (Enzymatic assay) EUB0001199aCl MAP4K4.
For assay [8], the target named is Dual specificity protein kinase CLK2 (Homo sapiens, UniProt P49760). The experiment in a line: Selectivity interaction (ActivX KiNativ screen (kinase selectivity in THP-1 cell lysates)) EUB0000639a CLK2. The format is subcellular. The following applies: lysate.
Chain of Dual specificity protein kinase CLK2 (P49760 whole entry, looked up): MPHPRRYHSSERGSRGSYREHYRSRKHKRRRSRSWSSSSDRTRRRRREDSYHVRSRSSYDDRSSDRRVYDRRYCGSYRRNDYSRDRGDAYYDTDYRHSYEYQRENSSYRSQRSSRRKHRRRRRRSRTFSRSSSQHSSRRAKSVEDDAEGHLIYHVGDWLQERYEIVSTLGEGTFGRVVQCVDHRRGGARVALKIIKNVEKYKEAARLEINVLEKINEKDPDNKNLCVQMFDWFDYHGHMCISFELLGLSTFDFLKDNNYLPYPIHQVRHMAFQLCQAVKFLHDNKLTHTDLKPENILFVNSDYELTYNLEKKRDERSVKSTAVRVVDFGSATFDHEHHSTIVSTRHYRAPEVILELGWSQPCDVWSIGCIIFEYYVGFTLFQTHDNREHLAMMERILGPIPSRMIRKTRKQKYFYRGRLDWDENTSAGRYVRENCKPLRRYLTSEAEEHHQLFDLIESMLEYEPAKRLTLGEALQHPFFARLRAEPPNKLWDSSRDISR
Assay [9] addresses T3, Serine/threonine-protein kinase D2 (Homo sapiens) (UniProt Q9BZL6).
T3 sequence (whole entry): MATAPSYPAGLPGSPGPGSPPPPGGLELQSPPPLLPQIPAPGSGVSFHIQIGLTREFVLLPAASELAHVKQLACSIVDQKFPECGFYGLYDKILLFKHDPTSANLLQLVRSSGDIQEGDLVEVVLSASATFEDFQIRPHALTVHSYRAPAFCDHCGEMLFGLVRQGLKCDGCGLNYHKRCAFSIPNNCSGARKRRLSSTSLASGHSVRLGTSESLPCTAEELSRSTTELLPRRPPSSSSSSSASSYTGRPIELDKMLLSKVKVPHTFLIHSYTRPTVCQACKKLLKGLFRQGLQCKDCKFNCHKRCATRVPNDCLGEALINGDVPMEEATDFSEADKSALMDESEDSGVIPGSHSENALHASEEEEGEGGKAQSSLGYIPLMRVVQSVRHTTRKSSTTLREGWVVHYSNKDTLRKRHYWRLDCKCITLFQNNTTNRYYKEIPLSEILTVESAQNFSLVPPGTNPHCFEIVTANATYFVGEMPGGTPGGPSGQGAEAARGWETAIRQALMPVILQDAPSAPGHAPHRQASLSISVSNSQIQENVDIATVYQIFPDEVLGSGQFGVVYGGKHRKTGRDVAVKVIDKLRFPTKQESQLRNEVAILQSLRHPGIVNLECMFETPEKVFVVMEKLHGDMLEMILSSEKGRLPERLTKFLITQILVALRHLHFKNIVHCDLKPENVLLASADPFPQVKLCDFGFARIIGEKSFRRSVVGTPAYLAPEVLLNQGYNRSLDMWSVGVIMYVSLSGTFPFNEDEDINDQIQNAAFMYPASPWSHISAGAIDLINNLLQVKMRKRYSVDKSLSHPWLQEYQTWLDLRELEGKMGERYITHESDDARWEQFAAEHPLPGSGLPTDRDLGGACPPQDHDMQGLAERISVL
The experiment in a line: Selectivity interaction (Kinase screening (Nanosyn)) EUB0000604a PRKD2.

Assay [10] concerns the target Homeodomain-interacting protein kinase 3 (Homo sapiens, UniProt Q9H422). The experiment in a line: Selectivity interaction (Enzymatic assay (Eurofins)) EUB0001049a HIPK3.
For assay [11], the target named is Protein kinase C eta type (Homo sapiens) (UniProt P24723). Description: Selectivity interaction (KinomeScan (DiscoverX)) EUB0001049a PRKCH. The following applies: at 1 µM.
The target in assay [12] is Cyclin-dependent kinase 3/Cyclin-C (Homo sapiens) (UniProt Q00526+P24863). Description: (§1) Selectivity interaction (ProQinase) EUB0000171b CDK3. The format is protein-complex assay.
Chain of Cyclin-dependent kinase 3/Cyclin-C (Homo sapiens) (P24863 whole entry, looked up): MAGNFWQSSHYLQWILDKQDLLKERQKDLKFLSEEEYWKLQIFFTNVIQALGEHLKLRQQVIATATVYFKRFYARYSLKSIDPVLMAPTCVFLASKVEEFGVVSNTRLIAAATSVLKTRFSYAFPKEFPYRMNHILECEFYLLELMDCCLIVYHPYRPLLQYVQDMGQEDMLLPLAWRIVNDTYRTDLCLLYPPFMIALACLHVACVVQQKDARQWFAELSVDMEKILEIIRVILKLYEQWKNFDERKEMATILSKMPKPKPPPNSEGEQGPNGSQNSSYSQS
Chain of Cyclin-dependent kinase 3/Cyclin-C (Homo sapiens) (Q00526 whole entry, looked up): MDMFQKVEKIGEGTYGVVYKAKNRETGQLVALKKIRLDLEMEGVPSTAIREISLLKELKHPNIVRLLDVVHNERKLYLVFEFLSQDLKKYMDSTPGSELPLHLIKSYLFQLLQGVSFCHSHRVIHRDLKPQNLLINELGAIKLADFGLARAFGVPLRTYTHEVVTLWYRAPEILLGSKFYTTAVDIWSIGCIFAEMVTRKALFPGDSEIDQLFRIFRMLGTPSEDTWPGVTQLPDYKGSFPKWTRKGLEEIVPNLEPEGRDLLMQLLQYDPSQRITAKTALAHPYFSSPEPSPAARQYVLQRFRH
In assay [13] the target is CDK3/Cyclin E (Homo sapiens) (UniProt P24864+Q00526). The assay is described as §1. The format is protein-complex assay.
Chain of CDK3/Cyclin E (Homo sapiens) (P24864 whole entry, looked up): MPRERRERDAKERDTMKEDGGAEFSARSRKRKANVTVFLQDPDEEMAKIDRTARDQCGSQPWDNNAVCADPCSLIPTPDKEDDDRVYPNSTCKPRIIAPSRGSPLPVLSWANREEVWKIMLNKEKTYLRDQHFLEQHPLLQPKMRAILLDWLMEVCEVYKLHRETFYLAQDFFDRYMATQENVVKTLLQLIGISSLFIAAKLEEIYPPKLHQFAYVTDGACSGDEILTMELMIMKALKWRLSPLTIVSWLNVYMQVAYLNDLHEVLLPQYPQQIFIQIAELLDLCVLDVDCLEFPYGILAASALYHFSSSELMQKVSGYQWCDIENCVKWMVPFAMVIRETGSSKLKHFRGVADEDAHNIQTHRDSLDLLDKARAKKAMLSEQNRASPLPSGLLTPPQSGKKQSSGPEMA
Chain of CDK3/Cyclin E (Homo sapiens) (Q00526 whole entry, looked up): as the sequence (Q00526 whole entry, looked up) above
Assay [14] concerns the target Serine/threonine-protein kinase PAK 6 (Homo sapiens) (UniProt Q9NQU5). Description: Selectivity interaction (ProQinase) EUB0000171b PAK6. The settings on record: at 5 µM.
The target in assay [15] is PH-interacting protein (Homo sapiens) (UniProt Q8WWQ0). The experiment in a line: Selectivity interaction (Human bromodomain panel (DSF assay)) EUB0000233b PHIP. For orientation: In DSF a fluorescence change marks the thermal transition of the protein.

Structures are written as SMILES.

Chain of Serine/threonine-protein kinase PAK 6 (Homo sapiens) (Q9NQU5 whole entry, looked up): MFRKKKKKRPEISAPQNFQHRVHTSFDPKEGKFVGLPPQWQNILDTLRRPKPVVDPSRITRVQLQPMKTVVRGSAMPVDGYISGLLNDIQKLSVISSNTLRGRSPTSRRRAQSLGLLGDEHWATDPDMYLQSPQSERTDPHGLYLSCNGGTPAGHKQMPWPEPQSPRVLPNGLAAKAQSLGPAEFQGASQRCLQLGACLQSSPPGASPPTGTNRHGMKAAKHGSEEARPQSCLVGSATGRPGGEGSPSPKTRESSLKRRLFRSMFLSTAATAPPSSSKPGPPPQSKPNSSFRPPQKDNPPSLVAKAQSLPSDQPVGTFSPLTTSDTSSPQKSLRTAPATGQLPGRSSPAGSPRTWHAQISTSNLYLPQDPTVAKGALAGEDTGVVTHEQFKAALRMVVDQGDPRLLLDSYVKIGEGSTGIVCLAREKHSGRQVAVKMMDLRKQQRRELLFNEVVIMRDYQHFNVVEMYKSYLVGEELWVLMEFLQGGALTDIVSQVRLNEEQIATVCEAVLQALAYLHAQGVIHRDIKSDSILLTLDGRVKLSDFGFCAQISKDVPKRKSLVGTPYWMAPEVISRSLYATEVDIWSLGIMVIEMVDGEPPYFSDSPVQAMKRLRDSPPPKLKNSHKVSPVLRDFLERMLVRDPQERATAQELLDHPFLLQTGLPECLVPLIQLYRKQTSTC

`Cn1cc(-n2cnc3c(NCc4nc5cc(Cl)c(Cl)cc5[nH]4)nc(N4CCOCC4)nc32)cn1` returned a % of control in assay [1] of 2.42%. In addition, the % of inhibition in assay [2] is -1.07%.

Take `CNC(=O)Nc1ccc(-c2nc(N3CC4CCC(C3)O4)c3cnn(C4CCC5(CC4)OCCO5)c3n2)cc1`: the % of control in assay [3] turned out to be 83%. Moreover, the % of inhibition in assay [4] came out at 5%.

`N#Cc1cccc(-c2c[nH]c3ncnc(N4CCOCC4)c23)c1`: in [5], the % of control was 56%. Further, the % of inhibition in [6] was 33%.

Consider `CN1Cc2nccc(-c3cn(C)nc3-c3ccc(F)cc3)c2C1=O`, for which the IC50 in [7] was 873 nM.

For `CC[C@@H]1[C@H](F)C(=O)N[C@@H]1COc1nccc2cc(C(N)=O)c(OC)cc12` [ZIMLOVISERTIB], the % of inhibition turned out to be 26.8% in assay [8] (at 0.01 µM); 32.4% in assay [8] (at 0.04 µM); 38.8% in assay [8] (at 0.2 µM); 14.3% in assay [8] (at 1 µM); 19.9% in assay [8] (at 5 µM).

Turning to `Cc1cnc(Nc2ccc(F)cc2Cl)nc1-c1c[nH]c(C(=O)N[C@H](CO)c2cccc(Cl)c2)c1`, the % of inhibition in [9] is 50%.

For `COc1cc(Nc2nc(C)cc(-c3cnn4nc(OC)ccc34)n2)cc(C(F)(F)F)c1`, the IC50 in assay [10] is more than 10000 nM. Further, in [11], the % of control was found to be 100%.

Take `C=CC(=O)Nc1cccc(C(=O)Nc2ccc(Nc3cc(-c4[nH]c(SC)nc4C)ccn3)cc2)c1`: the % of control was determined as 91% in assay [12] (at 1 µM); 74% in assay [12] (at 5 µM); 98% in assay [13] (at 1 µM); 79% in assay [13] (at 5 µM); 67% in assay [14].

`CN(C)CCCOc1ccc(-c2cc(NCCCn3cccn3)nc(S(C)(=O)=O)n2)cc1` had a dTM in [15] of less than 2 K.

The term IC50 denotes the concentration needed to halve the response being measured. Higher therefore signals weaker potency in that assay.
